Reference: patent US10898475B2, “Bach1 inhibitors in combination with Nrf2 activators and pharmaceutical compositions thereof” (vTv Therapeutics LLC, priority 2014, dated 2021)

Test system: HMOX1 in Normal Human Lung Fibroblasts (NHLF)
Experiment: HMOX1 Protein Expression (immunostaining, fold induction or % positive cells over DMSO)
Conditions: for Hill slope of DMF dose response curves in Table 2: % Positive HMOX

Fold Induction of HMOX (Cpd. 0.019 uM, DMF 0 uM): 1.29 fold | Fold Induction of HMOX (Cpd. 0.019 uM, DMF 0.03 uM): 1.10 fold | Fold Induction of HMOX (Cpd. 0.019 uM, DMF 0.1 uM): 1.15 fold | Fold Induction of HMOX (Cpd. 0.019 uM, DMF 0.3 uM): 1.24 fold | Fold Induction of HMOX (Cpd. 0.019 uM, DMF 1 uM): 1.68 fold | Fold Induction of HMOX (Cpd. 0.019 uM, DMF 3 uM): 2.86 fold | Fold Induction of HMOX (Cpd. 0.019 uM, DMF 10 uM): 5.75 fold | Fold Induction of HMOX (Cpd. 0.019 uM, DMF 30 uM): 4.65 fold | Fold Induction of HMOX (Cpd. 0.039 uM, DMF 0 uM): 1.37 fold | Fold Induction of HMOX (Cpd. 0.039 uM, DMF 0.03 uM): 1.28 fold | Fold Induction of HMOX (Cpd. 0.039 uM, DMF 0.1 uM): 1.35 fold | Fold Induction of HMOX (Cpd. 0.039 uM, DMF 0.3 uM): 1.61 fold | Fold Induction of HMOX (Cpd. 0.039 uM, DMF 1 uM): 2.10 fold | Fold Induction of HMOX (Cpd. 0.039 uM, DMF 3 uM): 3.01 fold | Fold Induction of HMOX (Cpd. 0.039 uM, DMF 10 uM): 5.13 fold | Fold Induction of HMOX (Cpd. 0.039 uM, DMF 30 uM): 4.90 fold | Fold Induction of HMOX (Cpd. 0.078 uM, DMF 0 uM): 1.59 fold | Fold Induction of HMOX (Cpd. 0.078 uM, DMF 0.03 uM): 1.37 fold | Fold Induction of HMOX (Cpd. 0.078 uM, DMF 0.1 uM): 1.48 fold | Fold Induction of HMOX (Cpd. 0.078 uM, DMF 0.3 uM): 1.73 fold | Fold Induction of HMOX (Cpd. 0.078 uM, DMF 1 uM): 2.53 fold | Fold Induction of HMOX (Cpd. 0.078 uM, DMF 3 uM): 4.33 fold | Fold Induction of HMOX (Cpd. 0.078 uM, DMF 10 uM): 6.46 fold | Fold Induction of HMOX (Cpd. 0.078 uM, DMF 30 uM): 6.18 fold | Fold Induction of HMOX (Cpd. 0.156 uM, DMF 0 uM): 2.66 fold | Fold Induction of HMOX (Cpd. 0.156 uM, DMF 0.03 uM): 1.99 fold | Fold Induction of HMOX (Cpd. 0.156 uM, DMF 0.1 uM): 2.54 fold | Fold Induction of HMOX (Cpd. 0.156 uM, DMF 0.3 uM): 3.06 fold | Fold Induction of HMOX (Cpd. 0.156 uM, DMF 1 uM): 4.08 fold | Fold Induction of HMOX (Cpd. 0.156 uM, DMF 3 uM): 4.57 fold | Fold Induction of HMOX (Cpd. 0.156 uM, DMF 10 uM): 6.55 fold | Fold Induction of HMOX (Cpd. 0.156 uM, DMF 30 uM): 5.49 fold
SMILES: CN(C)C(=O)CNC(=O)c1ccc2c(c1)nc(Nc1nc3ccc(C(F)(F)F)cc3s1)n2C [HPP-C, 1-Methyl-2-(6-trifluoromethyl-benzothiazol-2-ylamino)-1H-benzimidazole-5-carboxylic acid dimethylcarbamoylmethyl-amide]
Hill slope of DMF dose response curves in Table 2 (Bach1 Inhibitor Conc. 0.019 uM): 2.00 | Hill slope of DMF dose response curves in Table 2 (Bach1 Inhibitor Conc. 0.039 uM): 1.80 | Hill slope of DMF dose response curves in Table 2 (Bach1 Inhibitor Conc. 0.078 uM): 1.79 | Hill slope of DMF dose response curves in Table 2 (Bach1 Inhibitor Conc. 0.156 uM): 0.83 | % Cells Positive HMOX (Cpd. 0.019 uM, DMF 0 uM): 3.60% | % Cells Positive HMOX (Cpd. 0.019 uM, DMF 0.03 uM): 1.18% | % Cells Positive HMOX (Cpd. 0.019 uM, DMF 0.1 uM): 2.37% | % Cells Positive HMOX (Cpd. 0.019 uM, DMF 0.3 uM): 6.49% | % Cells Positive HMOX (Cpd. 0.019 uM, DMF 1 uM): 10.18% | % Cells Positive HMOX (Cpd. 0.019 uM, DMF 3 uM): 51.54% | % Cells Positive HMOX (Cpd. 0.019 uM, DMF 10 uM): 94.22% | % Cells Positive HMOX (Cpd. 0.019 uM, DMF 30 uM): 84.20% | % Cells Positive HMOX (Cpd. 0.039 uM, DMF 0 uM): 2.31% | % Cells Positive HMOX (Cpd. 0.039 uM, DMF 0.03 uM): 5.74% | % Cells Positive HMOX (Cpd. 0.039 uM, DMF 0.1 uM): 6.82% | % Cells Positive HMOX (Cpd. 0.039 uM, DMF 0.3 uM): 12.76% | % Cells Positive HMOX (Cpd. 0.039 uM, DMF 1 uM): 23.54% | % Cells Positive HMOX (Cpd. 0.039 uM, DMF 3 uM): 68.03% | % Cells Positive HMOX (Cpd. 0.039 uM, DMF 10 uM): 94.66% | % Cells Positive HMOX (Cpd. 0.039 uM, DMF 30 uM): 90.40% | % Cells Positive HMOX (Cpd. 0.078 uM, DMF 0 uM): 7.12% | % Cells Positive HMOX (Cpd. 0.078 uM, DMF 0.03 uM): 5.99% | % Cells Positive HMOX (Cpd. 0.078 uM, DMF 0.1 uM): 8.24% | % Cells Positive HMOX (Cpd. 0.078 uM, DMF 0.3 uM): 16.20% | % Cells Positive HMOX (Cpd. 0.078 uM, DMF 1 uM): 37.74% | % Cells Positive HMOX (Cpd. 0.078 uM, DMF 3 uM): 81.81% | % Cells Positive HMOX (Cpd. 0.078 uM, DMF 10 uM): 97.16% | % Cells Positive HMOX (Cpd. 0.078 uM, DMF 30 uM): 96.15% | % Cells Positive HMOX (Cpd. 0.156 uM, DMF 0 uM): 28.56% | % Cells Positive HMOX (Cpd. 0.156 uM, DMF 0.03 uM): 22.08% | % Cells Positive HMOX (Cpd. 0.156 uM, DMF 0.1 uM): 33.12% | % Cells Positive HMOX (Cpd. 0.156 uM, DMF 0.3 uM): 49.95% | % Cells Positive HMOX (Cpd. 0.156 uM, DMF 1 uM): 66.67% | % Cells Positive HMOX (Cpd. 0.156 uM, DMF 3 uM): 88.98% | % Cells Positive HMOX (Cpd. 0.156 uM, DMF 10 uM): 100.00% | % Cells Positive HMOX (Cpd. 0.156 uM, DMF 30 uM): 84.03% | combination effect in terms of the % HMOX positive cells (combination with DMF at concentrations below their maximum effect (Table 2)): additive or greater than additive | change of Hill slope of the DMF dose response curve (FIG. 5) (upon increasing amounts of the Bach1 Inhibitor): reduced
